# Data as given in US10233173B2, “Substituted 1,2,3-triazoles as NR2B-selective NMDA modulators” (JANSSEN PHARMACEUTICA NV, priority 2016, dated 2019).
# Molecular target: human GluN1/GluN2B NMDA receptors (Homo sapiens, UniProt Q05586+Q13224)
# Test: Cell-based calcium flux (FLIPR) assay on cloned human NR1/NR2B ion channels expressed in mammalian cells
# Settings: standard assay; glutamate at ~EC80; FLIPR calcium flux
# Procedure: Effects of Test Articles on Cloned Human NR1/NR2B Ion Channels Expressed in Mammalian Cells
# NMDA receptors are ion channels that are highly permeable to Ca^2+ ions, rendering it possible to monitor NMDA receptor function using cell-based calcium flux assay. In this assay, co-agonists glutamate and glycine are added to cells heterologously expressing human GluN1/GluN2B NMDA receptors to initiate cellular Ca^2+ influx. The time course of the changes in intracellular calcium is measured using a fluorescent dye and a FLIPR (Fluorometric Imaging Plate Reader) device.
# Twenty four hours before measurements, the expression of the NMDA receptors in the stable cell line is induced with Tet-On inducible system in the presence of a non-selective NMDA receptor blocker. On the day of the experiment, cell culture media is carefully washed and the cells are loaded with Calcium 5 Dye Kit (Molecular Devices) in dye loading buffer containing 149 mM NaCl, 4 mM KCl, 2 mM CaCl2, and 1.5 mM MgCl2, 10 mM HEPES and 5 mM D-glucose; pH 7.4. After 1 h incubation at the room temperature, the dye is washed away with the assay buffer (149 mM NaCl (standard assay) or 150 mM (HTS assay), 4 mM KCl (standard assay) or 3 mM (HTS assay), 2 mM CaCl2, 0.01 mM EDTA, 10 mM HEPES and 5 mM D-glucose; pH 7.4) In the FLIPR TETRA reader, various concentrations of the test compounds are added to the cells for 5 min while fluorescence is monitored to detect potential agonist activity. Next, co-agonists, glutamate and glycine are added for another 5 minutes. The concentration of glutamate corresponding to ˜EC80 (standard assay) or EC40 (HTS assay) is used to maximize the assay's signal window or the ability to detect NMDA receptor antagonists and negative allosteric modulators, respectively. A saturating concentration (10 μM) of glycine is also present in the assay. […] The fluorescent signal in the presence of test compounds is quantified and normalized to the signal defined by the appropriate control wells.
# Chain of human GluN1/GluN2B NMDA receptors (Q13224 27-1484, other chains not shown): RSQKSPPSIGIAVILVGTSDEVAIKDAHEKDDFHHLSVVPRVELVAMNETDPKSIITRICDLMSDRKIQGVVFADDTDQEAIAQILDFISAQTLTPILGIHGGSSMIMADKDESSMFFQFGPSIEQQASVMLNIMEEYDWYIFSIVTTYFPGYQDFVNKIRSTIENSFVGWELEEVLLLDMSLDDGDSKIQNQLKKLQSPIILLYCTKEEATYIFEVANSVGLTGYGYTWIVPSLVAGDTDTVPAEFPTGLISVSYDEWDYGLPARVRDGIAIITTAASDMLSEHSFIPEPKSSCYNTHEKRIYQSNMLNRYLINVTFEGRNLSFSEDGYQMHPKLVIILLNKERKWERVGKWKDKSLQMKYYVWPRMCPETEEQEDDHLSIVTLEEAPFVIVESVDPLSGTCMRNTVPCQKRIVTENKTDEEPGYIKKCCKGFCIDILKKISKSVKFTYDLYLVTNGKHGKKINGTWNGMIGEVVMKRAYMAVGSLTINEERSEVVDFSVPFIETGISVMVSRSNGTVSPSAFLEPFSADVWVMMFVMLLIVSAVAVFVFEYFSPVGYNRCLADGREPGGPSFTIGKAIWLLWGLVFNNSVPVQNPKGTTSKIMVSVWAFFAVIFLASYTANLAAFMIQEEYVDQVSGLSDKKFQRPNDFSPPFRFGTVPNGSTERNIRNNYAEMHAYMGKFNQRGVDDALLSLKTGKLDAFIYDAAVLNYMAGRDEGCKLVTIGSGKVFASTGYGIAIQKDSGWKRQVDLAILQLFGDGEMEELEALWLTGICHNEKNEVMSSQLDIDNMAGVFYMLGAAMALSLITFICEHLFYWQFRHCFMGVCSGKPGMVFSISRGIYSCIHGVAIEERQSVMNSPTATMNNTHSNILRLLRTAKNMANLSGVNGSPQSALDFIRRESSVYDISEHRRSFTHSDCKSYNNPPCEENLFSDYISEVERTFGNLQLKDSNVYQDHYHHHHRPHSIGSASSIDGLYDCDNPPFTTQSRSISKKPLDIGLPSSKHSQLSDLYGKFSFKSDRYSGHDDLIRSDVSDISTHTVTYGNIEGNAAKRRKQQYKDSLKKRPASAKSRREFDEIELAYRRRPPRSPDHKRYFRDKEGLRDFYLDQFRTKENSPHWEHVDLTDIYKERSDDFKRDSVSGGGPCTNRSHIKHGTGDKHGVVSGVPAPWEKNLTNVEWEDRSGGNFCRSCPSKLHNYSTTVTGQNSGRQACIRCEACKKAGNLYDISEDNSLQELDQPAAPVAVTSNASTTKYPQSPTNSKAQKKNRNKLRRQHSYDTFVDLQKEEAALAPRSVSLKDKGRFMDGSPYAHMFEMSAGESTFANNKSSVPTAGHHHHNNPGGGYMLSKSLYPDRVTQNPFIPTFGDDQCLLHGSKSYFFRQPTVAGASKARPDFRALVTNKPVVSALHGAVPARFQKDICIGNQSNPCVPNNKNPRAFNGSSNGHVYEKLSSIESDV
row,SMILES,IC50 [µM]
1,"CC(O)(c1cnc(OCc2cn(-c3ccc(F)c(C(F)F)c3)nn2)nc1)C(F)(F)F (racemic) [Example 404, (R/S)-2-[2-[[1-[3-(Difluoromethyl)-4-fluoro-phenyl]triazol-4-yl]methoxy]pyrimidin-5-yl]-1,1,1-trifluoro-propan-2-ol]",0.482
2,"CC(O)(c1cnc(OCc2cn(-c3ccc(F)c(C(F)(F)F)c3)nn2)nc1)C(F)(F)F (racemic) [Example 441, (R/S)-1,1,1-Trifluoro-2-[2-[[1-[4-fluoro-3-(trifluoromethyl)phenyl]triazol-4-yl]methoxy]pyrimidin-5-yl]propan-2-ol]",0.412
3,"CC(O)c1cnc(OCc2cn(-c3ccc(F)c(C(F)(F)F)c3)nn2)nc1 (racemic) [Example 448, (R/S)-1-[2-[[1-[4-Fluoro-3-(trifluoromethyl)phenyl]triazol-4-yl]methoxy]pyrimidin-5-yl]ethanol]",0.031
4,"CC(F)(F)c1cc(-n2cc(COc3ncc(C(C)(O)C(F)(F)F)cn3)nn2)ccc1Cl (racemic) [Example 539, (R/S)-2-[2-[[1-[4-Chloro-3-(1,1-difluoroethyl)phenyl]triazol-4-yl]methoxy]pyrimidin-5-yl]-1,1,1-trifluoro-propan-2-ol]",0.45
5,"CC(O)c1cnc(OCc2cn(-c3ccc(Cl)c(C(C)(F)F)c3)nn2)nc1 (racemic) [Example 551, (R/S)-1-[2-[[1-[4-Chloro-3-(1,1-difluoroethyl)phenyl]triazol-4-yl]methoxy]pyrimidin-5-yl]ethanol]",0.014
6,"CC(F)(F)c1cc(-n2cc(COc3ncc(C(C)(O)C(F)(F)F)cn3)nn2)ccc1F (racemic) [Example 565, (R/S)-2-[2-[[1-[3-(1,1-Difluoroethyl)-4-fluoro-phenyl]triazol-4-yl]methoxy]pyrimidin-5-yl]-1,1,1-trifluoro-propan-2-ol]",0.308
7,"CC(O)c1cnc(OCc2cn(-c3ccc(F)c(C(C)(F)F)c3)nn2)nc1 (racemic) [Example 586, (R/S)-1-[2-[[1-[3-(1,1-Difluoroethyl)-4-fluoro-phenyl]triazol-4-yl]methoxy]pyrimidin-5-yl]ethanol]",0.014

# Same assay, conditions: standard assay; human GluN1/GluN2B, calcium flux (FLIPR), glutamate ~EC80
row,SMILES,IC50 [µM]
1,"CC(Oc1ncccn1)c1cn(-c2ccc(Cl)c(OC(F)F)c2)nn1 (racemic) [Example 53, (R/S)-2-[1-[1-[4-Chloro-3-(difluoromethoxy)phenyl]triazol-4-yl]ethoxy]pyrimidine]",0.026
2,"Cc1cnc(OC(C)c2cn(-c3ccc(Cl)c(OC(F)F)c3)nn2)nc1 (racemic) [Example 56, (R/S)-2-[1-[1-[4-Chloro-3-(difluoromethoxy)phenyl]triazol-4-yl]ethoxy]-5-methyl-pyrimidine]",0.028
3,"CC(Oc1ncc(Cl)cn1)c1cn(-c2ccc(Cl)c(OC(F)F)c2)nn1 (racemic) [Example 60, (R/S)-5-Chloro-2-[1-[1-[4-chloro-3-(difluoromethoxy)phenyl]triazol-4-yl]ethoxy]pyrimidine]",0.032
4,"CC(Oc1ncccn1)c1cn(-c2ccc(Cl)c(OC(F)F)c2)nn1 (single isomer, unassigned) [Example 54, (R*)-2-[1-[1-[4-Chloro-3-(difluoromethoxy)phenyl]triazol-4-yl]ethoxy]pyrimidine]",4.64
5,"CC(Oc1ncccn1)c1cn(-c2ccc(Cl)c(OC(F)F)c2)nn1 (single isomer, unassigned) [Example 55, (S*)-2-[1-[1-[4-Chloro-3-(difluoromethoxy)phenyl]triazol-4-yl]ethoxy]pyrimidine]",0.008
6,"FC(F)c1cc(-n2cc(COc3ncccn3)nn2)ccc1Cl [Example 1, 2-((1-(4-Chloro-3-(difluoromethyl)phenyl)-1H-1,2,3-triazol-4-yl)methoxy)pyrimidine]",0.049
7,"FC(F)Oc1cc(-n2cc(CNc3ccccn3)nn2)ccc1Cl [Example 2, N-((1-(4-Chloro-3-(difluoromethoxy)phenyl)-1H-1,2,3-triazol-4-yl)methyl)pyridin-2-amine]",0.213
8,"Fc1ccc(-n2cc(CNc3ncccn3)nn2)cc1C(F)(F)F [Example 3, N-[[1-[4-Fluoro-3-(trifluoromethyl)phenyl]triazol-4-yl]methyl]pyrimidin-2-amine]",2.8
9,"Fc1ccc(-n2cc(COc3ccccn3)nn2)cc1OC(F)F [Example 4, 2-[[1-[3-(Difluoromethoxy)-4-fluoro-phenyl]triazol-4-yl]methoxy]pyridine]",0.392
10,"FC(F)Oc1cc(-n2cc(COc3cccnc3)nn2)ccc1Cl [Example 5, 3-[[1-[4-Chloro-3-(difluoromethoxy)phenyl]triazol-4-yl]methoxy]pyridine]",0.333
11,FC(F)c1cccc(-n2cc(CNc3ncccn3)nn2)c1 [Example 6],10.6
12,"Cn1ccnc1NCc1cn(-c2ccc(F)c(OC(F)F)c2)nn1 [Example 7, N-[[1-[3-(Difluoromethoxy)-4-fluoro-phenyl]triazol-4-yl]methyl]-1-methyl-imidazol-2-amine]",1.87
13,"Cc1cccc(OCc2cn(-c3ccc(F)c(OC(F)F)c3)nn2)n1 [Example 8, 2-[[1-[3-(Difluoromethoxy)-4-fluoro-phenyl]triazol-4-yl]methoxy]-6-methyl-pyridine]",0.022
14,"Fc1ccc(-n2cc(COc3ncccn3)nn2)cc1Br [Example 9, 2-[[1-(3-Bromo-4-fluoro-phenyl)triazol-4-yl]methoxy]pyrimidine]",0.02
15,"FC(F)Oc1cc(-n2cc(COc3ncccn3)nn2)ccc1Cl [Example 10, 2-[[1-[4-Chloro-3-(difluoromethoxy)phenyl]triazol-4-yl]methoxy]pyrimidine]",0.01
16,"FC(F)c1cc(-n2cc(COc3ccccn3)nn2)ccc1Cl [Example 11, 2-[[1-[4-Chloro-3-(difluoromethyl)phenyl]triazol-4-yl]methoxy]pyridine]",1.2
17,"FC(F)c1cc(-n2cc(COc3ccncn3)nn2)ccc1Cl [Example 12, 4-[[1-[4-Chloro-3-(difluoromethyl)phenyl]triazol-4-yl]methoxy]pyrimidine]",2.23
18,"FC(F)Oc1cc(-n2cc(COc3ccncn3)nn2)ccc1Cl [Example 13, 4-[[1-[4-Chloro-3-(difluoromethoxy)phenyl]triazol-4-yl]methoxy]pyrimidine]",0.879
19,"FC(F)Oc1cc(-n2cc(COc3cccnn3)nn2)ccc1Cl [Example 14, 3-[[1-[4-Chloro-3-(difluoromethoxy)phenyl]triazol-4-yl]methoxy]pyridazine]",0.401
20,"COc1cc(-n2cc(COc3ncccn3)nn2)ccc1Cl [Example 15, 2-[[1-(4-Chloro-3-methoxy-phenyl)triazol-4-yl]methoxy]pyrimidine]",0.699

# More lines, now with the values ahead:
row,IC50 [µM],SMILES
1,0.04,"Cc1ccnc(OC(C)c2cn(-c3ccc(Cl)c(OC(F)F)c3)nn2)n1 (racemic) [Example 59, (R/S)-2-[1-[1-[4-Chloro-3-(difluoromethoxy)phenyl]triazol-4-yl]ethoxy]-4-methyl-pyrimidine]"
2,0.018,"CC(O)c1cnc(OCc2cn(-c3ccc(F)c(C(F)F)c3)nn2)nc1 (racemic) [Example 157, (R/S)-1-[2-[[1-[3-(Difluoromethyl)-4-fluoro-phenyl]triazol-4-yl]methoxy]pyrimidin-5-yl]ethanol]"
3,1.4,"CC(N)c1ccnc(OCc2cn(-c3ccc(F)c(OC(F)F)c3)nn2)n1 (racemic) [Example 163, (R/S) 1-[2-[[1-[3-(Difluoromethoxy)-4-fluoro-phenyl]triazol-4-yl]methoxy]pyrimidin-4-yl]ethanamine]"
4,0.496,"CC(F)(F)c1cccc(-n2cc(COc3ncc(C(C)(O)C(F)(F)F)cn3)nn2)c1 (racemic) [Example 305, (R/S)-2-[2-[[1-[3-(1,1-Difluoroethyl)phenyl]triazol-4-yl]methoxy]pyrimidin-5-yl]-1,1,1-trifluoro-propan-2-ol]"
5,0.037,"CC(O)c1cnc(OCc2cn(-c3cccc(C(C)(F)F)c3)nn2)nc1 (racemic) [Example 310, (R/S)-1-[2-[[1-[3-(1,1-Difluoroethyl)phenyl]triazol-4-yl]methoxy]pyrimidin-5-yl]ethanol]"
6,1.58,"COC(C)c1cnc(OCc2cn(-c3cccc(C(C)(F)F)c3)nn2)nc1 (racemic) [Example 311, (R/S)-2-[[1-[3-(1,1-Difluoroethyl)phenyl]triazol-4-yl]methoxy]-5-(1-methoxyethyl)pyrimidine]"
7,0.338,"Cc1cnc(OC(C)c2cn(-c3ccc(Cl)c(OC(F)F)c3)nn2)nc1 (single isomer, unassigned) [Example 57, (R*)-2-[1-[1-[4-Chloro-3-(difluoromethoxy)phenyl]triazol-4-yl]ethoxy]-5-methyl-pyrimidine]"
8,0.007,"Cc1cnc(OC(C)c2cn(-c3ccc(Cl)c(OC(F)F)c3)nn2)nc1 (single isomer, unassigned) [Example 58, (S*)-2-[1-[1-[4-Chloro-3-(difluoromethoxy)phenyl]triazol-4-yl]ethoxy]-5-methyl-pyrimidine]"
